According to US12077503B2, “Substituted cyclic amides and their use as herbicides” (FMC CORPORATION, priority 2015, dated 2024):
Where two headings read alike, the source gives them in different places.

How the values were obtained:
Assay type in all cases: in vivo
Kochia (Kochia scoparia) [1] = experiment: Test A preemergence; settings: Bassia scoparia, pre-emergence, 240 h; for pest or weed control at 500 g/ha: 500 g ai/ha
How it was run: (§1)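 Ratings of 0 (no effect) to 100 (complete control) come from visual comparison with untreated controls roughly 10 d after treatment. Test chemicals, formulated in a non-phytotoxic solvent mixture with surfactant, were applied either as a preemergence directed soil spray on seeded soil or postemergence to one- to two-leaf plants 2 to 10 cm tall.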

[2] = system: barnyardgrass (Echinochloa crus-galli); experiment: Test B flooded paddy test; settings: Echinochloa crus-galli, Flood, 250 g ai/ha, read-out: Barnyardgrass plant response rating
How it was run: (§2)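 Percent control, visually estimated after 13–15 d in the greenhouse on a 0–100 basis, compares treated pots with untreated ones; compound was put into paddy water 3 cm above the soil when plants had two leaves.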

[3] = system: sedge, umbrella (small-flower umbrella sedge, Cyperus difformis); experiment: Test B flooded paddy test; settings: Cyperus difformis, Flood, 250 g ai/ha, read-out: Sedge, Umbrella plant response rating
How it was run: as §2

rice (Oryra sativa) = experiment: Test B flooded paddy test; settings: Oryza sativa, Flood, 250 g ai/ha, read-out: Rice plant response rating
How it was run: as §2

[4] = system: ducksalad (Heteranthera limosa); experiment: Test B flooded paddy test; settings: Heteranthera limosa, Flood, 250 g ai/ha, read-out: Ducksalad plant response rating
How it was run: as §2

[5] = system: blackgrass (Alopecurus myosuroides); experiment: Test A postemergence; settings: Alopecurus myosuroides, post-emergence, 240 h; for pest or weed control at 125 g/ha: 125 g ai/ha
How it was run: as §1

[6] = system: barnyardgrass (Echinochloa crus-galli); experiment: Test A postemergence; settings: Echinochloa crus-galli, post-emergence, 240 h; for pest or weed control at 125 g/ha: 125 g ai/ha, read-out: Barnyardgrass plant response rating (0 to 100 scale, 0 no effect, 100 complete control)
How it was run: as §1

Kochia (Kochia scoparia) [7] = experiment: Test A postemergence; settings: Bassia scoparia, post-emergence, 240 h; for pest or weed control at 125 g/ha: 125 g ai/ha
How it was run: as §1

corn (Zea mays) = experiment: Test A postemergence; settings: Zea mays, post-emergence, 240 h; for plant injury at 125 g/ha: 125 g ai/ha
How it was run: as §1

[8] = system: giant foxtail (Setaria faberii); experiment: Test A postemergence; settings: Setaria faberi, post-emergence, 240 h; for pest or weed control at 125 g/ha: 125 g ai/ha
How it was run: as §1

[9] = system: pigweed (Amaranthus retroflexus); experiment: Test A postemergence; settings: Amaranthus retroflexus, post-emergence, 240 h; for pest or weed control at 125 g/ha: 125 g ai/ha
How it was run: as §1

[10] = system: ragweed (common ragweed, Ambrosia elatior); experiment: Test A postemergence; settings: Ambrosia artemisiifolia, post-emergence, 240 h; for pest or weed control at 125 g/ha: 125 g ai/ha
How it was run: as §1

[11] = system: ryegrass, Italian (Italian ryegrass, Lolium multiflorum); experiment: Test A postemergence; settings: Lolium multiflorum, post-emergence, 240 h; for pest or weed control at 125 g/ha: 125 g ai/ha
How it was run: as §1

[12] = system: wheat (Triticum aestivum); experiment: Test A postemergence; settings: Triticum aestivum, post-emergence, 240 h; for plant injury at 125 g/ha: 125 g ai/ha
How it was run: as §1

[13] = system: Galium (catchweed bedstraw, Galium aparine); experiment: Test A postemergence; settings: Galium, post-emergence, 240 h; for pest or weed control at 125 g/ha: 125 g ai/ha
How it was run: as §1

[14] = scale of 0 to 100 where 0 is no effect and 100 is complete control
[15] = 0 to 100 scale where 0 is no effect and 100 is complete control

SMILES: CN1C[C@H](c2cc(F)c(C(F)(F)F)c(F)c2)[C@@H](C(=O)Nc2ccccc2F)C1=O [Compound 899]
- pest or weed control at 500 g/ha (Kochia (Kochia scoparia) [1]; Preemergence, visual injury vs untreated controls after approximately 10 d, read-out: Kochia plant response rating (0 to 100 scale where 0 is no effect and 100 is complete control)): 70%
- pest or weed control at 250 g/ha [2, 14]: 55%
- pest or weed control at 250 g/ha [3, 14]: 0%
- pest or weed control at 250 g/ha (rice (Oryra sativa); [14]): 0%
- pest or weed control at 250 g/ha [4, 14]: 10%
- pest or weed control at 125 g/ha ([5]; postemergence, visual injury rating after approximately 10 d, read-out: Blackgrass plant response rating (0 to 100 scale, 0 no effect, 100 complete control)): 40%
- pest or weed control at 125 g/ha ([6]; postemergence, visual injury rating after approximately 10 d): 80%
- pest or weed control at 125 g/ha (Kochia (Kochia scoparia) [7]; postemergence, visual injury rating after approximately 10 d, read-out: Kochia plant response rating (0 to 100 scale, 0 no effect, 100 complete control)): 0%
- plant injury at 125 g/ha (corn (Zea mays); postemergence, visual injury rating after approximately 10 d, read-out: Corn plant response rating (0 to 100 scale, 0 no effect, 100 complete control)): 40%
- pest or weed control at 125 g/ha ([8]; postemergence, visual injury rating after approximately 10 d, read-out: Foxtail, Giant plant response rating (0 to 100 scale, 0 no effect, 100 complete control)): 90%
- pest or weed control at 125 g/ha ([9]; postemergence, visual injury rating after approximately 10 d, read-out: Pigweed plant response rating (0 to 100 scale, 0 no effect, 100 complete control)): 0%
- pest or weed control at 125 g/ha ([10]; postemergence, visual injury rating after approximately 10 d, read-out: Ragweed plant response rating (0 to 100 scale, 0 no effect, 100 complete control)): 20%
- pest or weed control at 125 g/ha ([11]; postemergence, visual injury rating after approximately 10 d, read-out: Ryegrass, Italian plant response rating (0 to 100 scale, 0 no effect, 100 complete control)): 30%
- plant injury at 125 g/ha ([12]; postemergence, visual injury rating after approximately 10 d, read-out: Wheat plant response rating (0 to 100 scale, 0 no effect, 100 complete control)): 30%
- pest or weed control at 125 g/ha ([13]; postemergence, visual injury rating after approximately 10 d, read-out: Galium plant response rating (0 to 100 scale, 0 no effect, 100 complete control)): 0%

SMILES: Cc1cc(F)cc([C@H]2CNC(=O)[C@@H]2C(=O)Nc2cccc(F)c2C)c1 [Compound 1308]
- pest or weed control at 125 g/ha (Kochia (Kochia scoparia) [1]; 125 g ai/ha, preemergence, visual injury rating, 0 to 100 scale where 0 is no effect and 100 is complete control, approximately 10 d, read-out: Kochia plant response rating): 0%
- pest or weed control at 500 g/ha (Kochia (Kochia scoparia) [1]; preemergence, 0 to 100 scale where 0 is no effect and 100 is complete control, read-out: Kochia plant response rating): 50%
- pest or weed control at 250 g/ha [2, 15]: 65%
- pest or weed control at 250 g/ha [3, 15]: 0%
- pest or weed control at 250 g/ha (rice (Oryra sativa); [15]): 40%
- pest or weed control at 250 g/ha [4, 15]: 100%
- pest or weed control at 125 g/ha ([5]; Postemergence, visual rating about 10 d after treatment, read-out: Blackgrass plant response rating (0 to 100 scale)): 30%
- pest or weed control at 500 g/ha ([5]; Postemergence, 500 g ai/ha, visual injury, 0 to 100 scale (0 no effect, 100 complete control), approx. 10 d, read-out: Plant response rating, Blackgrass): 50%
- pest or weed control at 125 g/ha ([6]; Postemergence, visual rating about 10 d after treatment): 80%
- pest or weed control at 500 g/ha ([6]; Postemergence, 500 g ai/ha, visual injury, 0 to 100 scale (0 no effect, 100 complete control), approx. 10 d, read-out: Plant response rating, Barnyardgrass): 80%
- pest or weed control at 125 g/ha (Kochia (Kochia scoparia) [7]; Postemergence, visual rating about 10 d after treatment, read-out: Kochia plant response rating (0 to 100 scale)): 0%
- pest or weed control at 500 g/ha (Kochia (Kochia scoparia) [7]; Postemergence, 500 g ai/ha, visual injury, 0 to 100 scale (0 no effect, 100 complete control), approx. 10 d, read-out: Plant response rating, Kochia): 0%
- plant injury at 125 g/ha (corn (Zea mays); Postemergence, visual rating about 10 d after treatment, read-out: Corn plant response rating (0 to 100 scale)): 20%
- Corn plant response rating (crop injury, 0 = no effect, 100 = complete kill) at 500 g/ha (corn (Zea mays); Postemergence, 500 g ai/ha, visual injury, 0 to 100 scale (0 no effect, 100 complete control), approx. 10 d): 80%
- pest or weed control at 125 g/ha ([8]; Postemergence, visual rating about 10 d after treatment, read-out: Foxtail, Giant plant response rating (0 to 100 scale)): 20%
- pest or weed control at 500 g/ha ([8]; Postemergence, 500 g ai/ha, visual injury, 0 to 100 scale (0 no effect, 100 complete control), approx. 10 d, read-out: Plant response rating, Foxtail, Giant): 80%
- pest or weed control at 125 g/ha ([9]; Postemergence, visual rating about 10 d after treatment, read-out: Pigweed plant response rating (0 to 100 scale)): 0%
- pest or weed control at 500 g/ha ([9]; Postemergence, 500 g ai/ha, visual injury, 0 to 100 scale (0 no effect, 100 complete control), approx. 10 d, read-out: Plant response rating, Pigweed): 0%
- pest or weed control at 125 g/ha ([10]; Postemergence, visual rating about 10 d after treatment, read-out: Ragweed plant response rating (0 to 100 scale)): 0%
- pest or weed control at 500 g/ha ([10]; Postemergence, 500 g ai/ha, visual injury, 0 to 100 scale (0 no effect, 100 complete control), approx. 10 d, read-out: Plant response rating, Ragweed): 20%
- pest or weed control at 125 g/ha ([11]; Postemergence, visual rating about 10 d after treatment, read-out: Ryegrass, Italian plant response rating (0 to 100 scale)): 0%
- pest or weed control at 500 g/ha ([11]; Postemergence, 500 g ai/ha, visual injury, 0 to 100 scale (0 no effect, 100 complete control), approx. 10 d, read-out: Plant response rating, Ryegrass, Italian): 0%
- plant injury at 125 g/ha ([12]; Postemergence, visual rating about 10 d after treatment, read-out: Wheat plant response rating (0 to 100 scale)): 20%
- plant injury at 500 g/ha ([12]; Postemergence, 500 g ai/ha, visual injury, 0 to 100 scale (0 no effect, 100 complete control), approx. 10 d, read-out: Plant response rating, Wheat): 40%
- pest or weed control at 125 g/ha ([13]; Postemergence, visual rating about 10 d after treatment, read-out: Galium plant response rating (0 to 100 scale)): 30%
- pest or weed control at 500 g/ha ([13]; Postemergence, 500 g ai/ha, visual injury, 0 to 100 scale (0 no effect, 100 complete control), approx. 10 d, read-out: Plant response rating, Galium): 50%
